Usually Km stands for the substrate concentration at which the rate is half of its maximum.

The record followed here is ChEMBL document CHEMBL1133993, “Chemical synthesis of UDP-beta-L-arabinofuranose and its turnover to UDP-beta-L-arabinopyranose by UDP-galactopyranose mutase” (Bioorg Med Chem Lett, 2001).

The test has as its system Escherichia coli. Briefly: Kinetic constant using the compound as substrate was determined against Escherichia coli UDP-galactopyranose mutase.

On to `O=c1ccn(C2O[C@H](COP(=O)(O)OP(=O)(O)OC3O[C@H]([C@H](O)CO)[C@H](O)[C@H]3O)[C@@H](O)[C@H]2O)c(=O)[nH]1` (some centres undefined), for which the Michaelis constant (Km) came out at 22 µM and the k cat amounted to 27 s⁻¹.
The like results for `O=c1ccn([C@@H]2O[C@H](COP(=O)(O)OP(=O)(O)O[C@H]3O[C@@H](CO)[C@H](O)[C@H]3O)[C@@H](O)[C@H]2O)c(=O)[nH]1` were, in that order, 600 µM and 12 s⁻¹.
